Each structure is given as a SMILES string.

The test system of one experiment is human LINE-1. In words: Human LINE-1 (L1) retrotransposition dual-luciferase reporter assay in HeLa cells. It counts as cell-based. The following applies: 72 hours, read-out: Human LINE-1 IC50 (Human L1 activity inhibition). As to the method: Representative compounds were tested for inhibition of retrotransposition activity of human LINE-1 (L1) retrotransposition reporter assay in HeLa cells according to the following procedure.
Human Cervical Adenocarcinoma Cells (HeLa) were cultured in Dulbecco's Modified Eagle's Medium (DMEM) containing 4500 mg/L glucose, L-glutamine, sodium pyruvate and sodium bicarbonate, supplemented with 10% of heat inactivated fetal bovine serum (FBS). Cells were grown at 37° C. in an atmosphere of 5% CO2. The dual luciferase-encoding plasmid pYX017 was provided by Prof Wenfeng An (Xie, et al., 2011, Nucleic Acids Res).
The reporter assay was performed in 96-well white, optical bottom plates (Thermo Fisher, 165306). 24 hours prior to transfection, HeLa cells were seeded in a density of 2,500 cells per well, in 50 μL of DMEM, 10% FBS media volume. Cells were incubated at 37° C. in an atmosphere of 5% CO2. Seeding was optimized to achieve approximately 30% cell confluency on the day of transfection. A transfection mix was prepared by combining transfection reagent FuGENE® HD (Promega, E2311) and plasmid DNA (100 ng per well) in a 3:1 ratio, in OpiMEM media (Thermo Fisher, 31985062). Next, 5 μL of the transfection mix was combined with 20 μL of DMEM, 10% FBS media, and 25 μL of this mix was added into each well of an assay plate. In each assay plate one column remained untransfected to serve as a blank luminescence signal.
Serial dilution of test compounds was performed in DMSO and transferred to medium. Next, 25 μL of media-diluted compounds series were transferred to an assay plate containing cells and transfection media. The final concentration of DMSO in treated wells was 0.2%. Serial dilutions of compounds were added to an assay plate immediately after transfection. Compounds were tested in triplicates. The assay plate was then incubated with transfection reagent and compounds at 37° C. in an atmosphere of 5% CO2 for 72 hours.
Luciferase reporter activity was quantified with the Dual-Luciferase® Reporter Assay System (Promega) following the manufacturer's manual, with a passive lysis buffer volume increased to 30 μL and lysis incubation time increased to 20 min at room temperature with gentle shaking, to ensure complete cell lysis. Luminescence was measured using a SpectraMax i3×Multi-Mode Microplate Reader, with integration times of 100 ms and 10 ms applied to measure FLuc and RLuc signals, respectively. Relative LNE-1 activity was calculated as Firefly signal/Renilla signal*10,000. In order to determine IC50 values for each compound, dose response data were fit to a logistic using non-linear regression.
By IC50 is commonly meant the concentration that gives 50% inhibition. On to `C#C[C@]1(CO)O[C@@H](n2cnc3c(N)nc(N)nc32)C[C@@H]1O` [compound 22], for which the IC50 is 23400 nM.
On the same count and under the same terms, the same measure for `CC[C@]1(CO)O[C@@H](n2cnc3c(N)nc(N)nc32)C[C@@H]1O` [compound 27]: 2.6 nM; for `C#C[C@]1(CO)O[C@@H](n2cnc3c(N)nc(N)nc32)C[C@@H]1O` [compound 12]: 6.2 nM.
The same measure, in the same setting: the same measure for `C[C@H](Cn1cnc2c(N)ncnc21)OCP(=O)(O)O` [Tenofovir, reference compound]: 2700 nM.

Staying with this experiment, now noted: Homo sapiens, 72 hours, read-out: Human LINE-1 IC50 (Human L1 activity inhibition).
Turning to `CC(C)OC(=O)[C@H](C)N[P@](=O)(CO[C@H](C)Cn1cnc2c(N)ncnc21)Oc1ccccc1` [Tenofovir Alafenamide (TAF), Tenofovir Alafenamide, reference compound], the IC50 turned out to be 10 nM.

Still in this experiment, the particulars now being: Homo sapiens, HeLa, 72 h, read-out: Human LINE-1 IC50 (Human L1 activity inhibition).
In the case of `C=C[C@]1(CO)O[C@@H](n2cnc3c(N)nc(F)nc32)C[C@@H]1O` [compound 20, (2R,3S,5R)-5-(6-amino-2-fluoro-9H-purin-9-yl)-2-(hydroxymethyl)-2-vinyltetrahydrofuran-3-ol], the concentration for half-maximal inhibition (IC50) was 11 nM.
On the same count and under the same terms, the same measure for `C#C[C@]1(CO)O[C@@H](n2cc(C)c(N)nc2=O)C[C@@H]1O` [compound 6]: 18600 nM; for `CC#C[C@]1(CO)C=C[C@H](n2cc(C)c(=O)[nH]c2=O)O1` [compound 16]: above 25000 nM.
With `Nc1ccn([C@H]2CO[C@@H](CO)S2)c(=O)n1` [Apricitabine, reference compound], the IC50 came out at 6340 nM.
The same measure, in the same setting: the same measure for `C#C[C@]1(CO)O[C@@H](n2cc(C)c(=O)[nH]c2=O)C[C@@H]1O` [compound 2]: 390 nM.
On the same count and under the same terms, the same measure for `C#C[C@]1(CO)O[C@@H](n2cnc3c(N)ncnc32)C[C@@H]1O` [compound 23]: above 50000 nM; for `CC[C@]1(CO)O[C@@H](n2cc(C)c(=O)[nH]c2=O)C[C@@H]1O` [compound 26]: 2050 nM.
The same measure, in the same setting: for `O=C1Nc2ccc(Cl)cc2[C@@](C#CC2CC2)(C(F)(F)F)O1` [Efavirenz, reference compound] the value was above 50000 nM; for `Cc1cn([C@H]2C[C@H](N=[N+]=[N-])[C@@H](CO)O2)c(=O)[nH]c1=O` [AZT, zidovudine, reference compound], 630 nM; for `C#C[C@@]1(CO)C=C[C@H](n2cnc3c(N)nc(F)nc32)O1` [compound 19], above 12500 nM.
`C#C[C@@]1(CO)C=C[C@H](n2cc(C)c(=O)[nH]c2=O)O1` [Censavudine, reference compound]: the IC50 was 70 nM.
On to `C=C1[C@H](CO)[C@@H](O)C[C@@H]1n1cnc2c(=O)[nH]c(N)nc21` [Entecavir, reference compound], for which the IC50 is 1450 nM.
Still for that read-out and setting: for `O=c1[nH]cnc2c1ncn2[C@H]1CC[C@@H](CO)O1` [Didanosine, reference compound] the value was 530 nM; for `Cc1ccnc2c1NC(=O)c1cccnc1N2C1CC1` [Nevirapine, reference compound], above 50000 nM.
The same measure, in the same setting: the same measure for `C=C[C@@]1(CO)C=C[C@H](n2cc(C)c(=O)[nH]c2=O)O1` [compound 18]: 12500 nM; for `Cc1cn([C@H]2C=C[C@@H](CO)O2)c(=O)[nH]c1=O` [Stavudine, reference compound]: 750 nM; for `Nc1ncnc2c1ncn2CCOCP(=O)(O)O` [Adefovir, reference compound]: above 6250 nM.
Still for that read-out and setting: the same measure for `C#C[C@@]1(CO)C=C[C@H](n2cc(Br)c(=O)[nH]c2=O)O1` [compound 17]: 910 nM; for `Nc1ccn([C@@H]2CS[C@H](CO)O2)c(=O)n1` [Lamivudine, reference compound]: 660 nM; for `C#C[C@]1(CO)O[C@@H](n2cc(Br)c(=O)[nH]c2=O)C[C@@H]1O` [compound 4]: 490 nM.
Turning to `CC(C)OC(=O)OCOP(=O)(CO[C@H](C)Cn1cnc2c(N)ncnc21)OCOC(=O)OC(C)C` [Tenofovir Disoproxil, reference compound], the IC50 was determined as 190 nM.
The same measure, in the same setting: for `Nc1ccn([C@H]2CC[C@@H](CO)O2)c(=O)n1` [Zalcitabine, reference compound] the value was 66 nM; for `Nc1nc(=O)n([C@@H]2CS[C@H](CO)O2)cc1F` [Emtricitabine (FTC), Emtricitabine, reference compound], 480 nM; for `C=C[C@]1(CO)O[C@@H](n2ccc(N)nc2=O)C[C@@H]1O` [compound 24], 10 nM.

Source of the values: patent publication US20230293526A1, “METHOD FOR TREATING CANCER WITH A REVERSE TRANSCRIPTASE INHIBITOR” (PrimeFour Therapeutics, Inc., priority 2020, published 2023).
